Measurements reported in PubChem BioAssay AID1919009 (Molecular Pharmacology Branch, DTP, NCI, 2023).

Tested on: K24384-001-R-PDC complex spheroid growth
Assay: Anticancer human tumor K24384-001-R-PDC patient-derived pancreatic adenocarcinoma cell line growth inhibition [AhR]
Settings: for IC50: curve of first compound; for viability, T/C: stronger effect = lower value
How it was run: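 Agents were dosed in half-log steps down from roughly clinical Cmax, or from 10 microM where Cmax was unknown, alone and with AhR antagonists. Read-out: percent test/control growth of tumor spheroids containing HUVEC and MSC stromal cells.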

[1] = second compound 0.1 µM, first compound 0.00316 µM
[2] = second compound 0.1 µM, first compound 0.01 µM
[3] = second compound 0.1 µM, first compound 0.0316 µM
[4] = second compound 0.1 µM, first compound 0.1 µM
[5] = second compound 0.316 µM, first compound 0.00316 µM
[6] = second compound 0.316 µM, first compound 0.01 µM
[7] = second compound 0.316 µM, first compound 0.0316 µM
[8] = second compound 0.316 µM, first compound 0.1 µM
[9] = second compound 1 µM, first compound 0.00316 µM
[10] = second compound 1 µM, first compound 0.01 µM
[11] = second compound 1 µM, first compound 0.0316 µM
[12] = second compound 1 µM, first compound 0.1 µM
[13] = second compound 3.16 µM, first compound 0.00316 µM
[14] = second compound 3.16 µM, first compound 0.01 µM
[15] = second compound 3.16 µM, first compound 0.0316 µM
[16] = second compound 3.16 µM, first compound 0.1 µM
[17] = second compound 10 µM, first compound 0.00316 µM
[18] = second compound 10 µM, first compound 0.01 µM
[19] = second compound 10 µM, first compound 0.0316 µM
[20] = second compound 10 µM, first compound 0.1 µM
[21] = second compound 0.1 µM, first compound 0.316 µM
[22] = second compound 0.1 µM, first compound 1 µM
[23] = second compound 0.1 µM, first compound 3.16 µM
[24] = second compound 0.1 µM, first compound 10 µM
[25] = second compound 0.316 µM, first compound 0.316 µM
[26] = second compound 0.316 µM, first compound 1 µM
[27] = second compound 0.316 µM, first compound 3.16 µM
[28] = second compound 0.316 µM, first compound 10 µM
[29] = second compound 1 µM, first compound 0.316 µM
[30] = second compound 1 µM, first compound 1 µM
[31] = second compound 1 µM, first compound 3.16 µM
[32] = second compound 1 µM, first compound 10 µM
[33] = second compound 3.16 µM, first compound 0.316 µM
[34] = second compound 3.16 µM, first compound 1 µM
[35] = second compound 3.16 µM, first compound 3.16 µM
[36] = second compound 3.16 µM, first compound 10 µM
[37] = second compound 10 µM, first compound 0.316 µM
[38] = second compound 10 µM, first compound 1 µM
[39] = second compound 10 µM, first compound 3.16 µM
[40] = second compound 10 µM, first compound 10 µM
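Throughout, for viability, T/C: percent of DMSO vehicle-treated spheroid viability set as 100%.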

Row | SMILES | IC50 (second compound 0.1 µM) [nM] | IC50 (second compound 0.316 µM) [nM] | IC50 (second compound 1 µM) [nM] | IC50 (second compound 3.16 µM) [nM] | IC50 (second compound 10 µM) [nM] | viability, T/C [3] [%] | viability, T/C [4] [%] | viability, T/C [7] [%] | viability, T/C [8] [%] | viability, T/C [11] [%] | viability, T/C [12] [%] | viability, T/C [15] [%] | viability, T/C [16] [%] | viability, T/C [19] [%] | viability, T/C [20] [%] | viability, T/C [21] [%] | viability, T/C [22] [%] | viability, T/C [25] [%] | viability, T/C [26] [%] | viability, T/C [29] [%] | also measured
1 | CC[C@@]1(O)C(=O)OCc2c1cc1n(c2=O)Cc2cc3c(CN(C)C)c(O)ccc3nc2-1 + Cc1ccccc1N=Nc1ccc(NC(=O)c2ccnn2C)c(C)c1 | 28.1 | 24.5 | 28.4 | 19.6 | 30.7 | 48.5 | 44.9 | 46.9 | 39.6 | 50.2 | 38.4 | 38.3 | 39.1 | 51.5 | 47.4 | – | – | – | – | – | viability, T/C (second compound 0.1 µM, first compound 0.000316 µM): 93.4%; viability, T/C (second compound 0.1 µM, first compound 0.001 µM): 96.2%; viability, T/C [1]: 95.4%; viability, T/C [2]: 72.2%; viability, T/C (second compound 0.316 µM, first compound 0.000316 µM): 97.3%; viability, T/C (second compound 0.316 µM, first compound 0.001 µM): 90.7%; viability, T/C [5]: 98.6%; viability, T/C [6]: 70.5%; viability, T/C (second compound 1 µM, first compound 0.000316 µM): 101%; viability, T/C (second compound 1 µM, first compound 0.001 µM): 94.1%; viability, T/C [9]: 94.7%; viability, T/C [10]: 67.8%; viability, T/C (second compound 3.16 µM, first compound 0.000316 µM): 87.3%; viability, T/C (second compound 3.16 µM, first compound 0.001 µM): 99.8%; viability, T/C [13]: 92.5%; viability, T/C [14]: 65.8%; viability, T/C (second compound 10 µM, first compound 0.000316 µM): 111%; viability, T/C (second compound 10 µM, first compound 0.001 µM): 101%; viability, T/C [17]: 109%; viability, T/C [18]: 68.7%
2 | COc1cc(C2c3cc4c(cc3C(OC3OC5COC(C)OC5C(O)C3O)C3COC(=O)C23)OCO4)cc(OC)c1O (stereo not given) + Cc1ccccc1N=Nc1ccc(NC(=O)c2ccnn2C)c(C)c1 | 955 | 1090 | 830 | 969 | 2730 | 97.7 | 96.3 | 104 | 92.5 | 102 | 101 | 78.3 | 89.1 | 102 | 98.5 | 77.9 | 49.6 | 66.3 | 55.2 | 83.1 | viability, T/C [23]: 35.2%; viability, T/C [24]: 35.6%; viability, T/C [27]: 36.5%; viability, T/C [28]: 38.7%; viability, T/C [30]: 43.6%; viability, T/C [31]: 33.9%; viability, T/C [32]: 31.7%; viability, T/C [33]: 64.4%; viability, T/C [34]: 51.6%; viability, T/C [35]: 39.7%; viability, T/C [36]: 35.5%; viability, T/C [37]: 88.6%; viability, T/C [38]: 63.9%; viability, T/C [39]: 46.2%; viability, T/C [40]: 46.4%
3 | COc1cccc2c1C(=O)c1c(O)c3c(c(O)c1C2=O)CC(O)(C(=O)CO)CC3OC1CC(N)C(O)C(C)O1 (stereo not given) + Cc1ccccc1N=Nc1ccc(NC(=O)c2ccnn2C)c(C)c1 | 68.9 | 54.7 | < 31.6 | < 31.6 | 50.4 | 57.9 | 45.7 | 53.7 | 46 | 42 | 42 | 47.6 | 40.1 | 55.9 | 41.3 | 22.5 | 7.05 | 19 | 8.11 | 12.8 | viability, T/C [23]: 3.16%; viability, T/C [24]: 7.56%; viability, T/C [27]: 2.84%; viability, T/C [28]: 8.04%; viability, T/C [30]: 7.59%; viability, T/C [31]: 2.46%; viability, T/C [32]: 8.88%; viability, T/C [33]: 14.3%; viability, T/C [34]: 2.98%; viability, T/C [35]: 6.7%; viability, T/C [36]: 6.51%; viability, T/C [37]: 9.04%; viability, T/C [38]: 8.14%; viability, T/C [39]: 3.61%; viability, T/C [40]: 9.36%
4 | Nc1ccn(C2OC(CO)C(O)C2(F)F)c(=O)n1 (stereo not given) + Cc1ccccc1N=Nc1ccc(NC(=O)c2ccnn2C)c(C)c1 | 109 | 168 | 164 | 184 | 493 | 67.6 | 51.8 | 61.8 | 53.7 | 67.6 | 57.4 | 58 | 60.4 | 69.3 | 63.2 | 35.9 | 29.9 | 44.5 | 28 | 40.6 | viability, T/C [23]: 22.9%; viability, T/C [24]: 20.6%; viability, T/C [27]: 19.2%; viability, T/C [28]: 19.7%; viability, T/C [30]: 25.8%; viability, T/C [31]: 21.2%; viability, T/C [32]: 15.1%; viability, T/C [33]: 41.9%; viability, T/C [34]: 25.9%; viability, T/C [35]: 20.5%; viability, T/C [36]: 17.1%; viability, T/C [37]: 60%; viability, T/C [38]: 35.3%; viability, T/C [39]: 28.7%; viability, T/C [40]: 20.1%
5 | Nc1ncn(C2CC(O)C(CO)O2)c(=O)n1 (stereo not given) + Cc1ccccc1N=Nc1ccc(NC(=O)c2ccnn2C)c(C)c1 | > 1000 | > 1000 | > 1000 | > 1000 | > 1000 | 90.2 | 79.4 | 100 | 103 | 90 | 89.5 | 83.5 | 68.9 | 97.7 | 79 | 87.5 | 68.8 | 80.6 | 71.4 | 73.2 | viability, T/C [1]: 108%; viability, T/C [2]: 114%; viability, T/C [5]: 102%; viability, T/C [6]: 112%; viability, T/C [9]: 103%; viability, T/C [10]: 99.2%; viability, T/C [30]: 66.9%; viability, T/C [13]: 89.4%; viability, T/C [14]: 85.7%; viability, T/C [33]: 64.9%; viability, T/C [34]: 57.5%; viability, T/C [17]: 93.6%; viability, T/C [18]: 95.1%; viability, T/C [37]: 66.7%; viability, T/C [38]: 58.1%
